Data from PubChem BioAssay (NCI).
Values joined by “and” are separate entries in the source; they are usually repeats but may differ in a detail not shown here. Equal entries are not always repeated.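 Where inhibition never reached the appropriate level, the endpoint shown equals the highest concentration tested. Otherwise, values were interpolated linearly from a five-concentration, 48-hour dose response in 96-well plates. The concentration for 50% growth inhibition is given as GI50. TGI denotes the concentration required for complete inhibition of growth.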

How the values were obtained:
Experiment in all cases: inhibition of tumour cell growth, NCI panel, 48 h
DU-145 prostate = system: DU-145 prostate
EKVX NSCLC = system: EKVX NSCLC
HCC-2998 colon = system: HCC-2998 colon
IGROV1 ovarian = system: IGROV1 ovarian
K-562 leukemia = system: K-562 leukemia
MALME-3M melanoma = system: MALME-3M melanoma
NCI-H23 lung = system: NCI-H23 lung
OVCAR-3 ovarian = system: OVCAR-3 ovarian
RPMI-8226 leukemia = system: RPMI-8226 leukemia
RXF 393 renal = system: RXF 393 renal
SF-268 CNS = system: SF-268 CNS
SK-MEL-28 melanoma = system: SK-MEL-28 melanoma
SN12C renal = system: SN12C renal
UACC-62 melanoma = system: UACC-62 melanoma
U251 CNS = system: U251 CNS

Compound	TGI (DU-145 prostate)	TGI (EKVX NSCLC)	TGI (HCC-2998 colon)	TGI (IGROV1 ovarian)	TGI (K-562 leukemia)	TGI (MALME-3M melanoma)	TGI (NCI-H23 lung)	TGI (OVCAR-3 ovarian)	TGI (RPMI-8226 leukemia)	TGI (RXF 393 renal)	TGI (SF-268 CNS)	TGI (SK-MEL-28 melanoma)	TGI (SN12C renal)	TGI (UACC-62 melanoma)	TGI (U251 CNS)	GI50 (DU-145 prostate)	GI50 (EKVX NSCLC)	GI50 (OVCAR-3 ovarian)	GI50 (SF-268 CNS)
COc1cc2cc(C(=O)N3CC(CCl)c4ccc(NO)cc43)[nH]c2c(OC)c1OC (stereo unspecified)	> 31 µM	2.15 µM	1.07 µM	10.3 µM	0.965 µM	0.317 µM	0.166 µM	0.535 µM	0.442 µM	0.343 µM	0.749 µM	3.22 µM	11.8 µM	0.372 µM					
CC(C)CC(N)C(=O)NC(CNC(CCC(N)=O)C(=O)NC(CC(C)C)C(=O)NC(CC(C)C)C(=O)O)Cc1ccc2ccccc2c1 (stereo unspecified)	> 10 µM	> 10 µM	> 10 µM	> 10 µM	> 10 µM	> 10 µM	> 10 µM	> 10 µM	> 10 µM	> 10 µM	> 10 µM	> 10 µM	> 10 µM	> 10 µM	> 10 µM				
CC1CC(C)(O)C2C3(C)CCCC2(COC3=O)C12CCC1(CCOC1=O)O2 (stereo unspecified)		> 250 µM	> 250 µM	> 250 µM	> 250 µM	> 250 µM	> 250 µM	> 250 µM	> 250 µM	> 250 µM	> 250 µM	> 250 µM	> 250 µM	> 250 µM	> 250 µM				
O=C(O)C1=C(CO)Oc2cc3c(cc2C1c1ccc2c(c1)OCO2)OCO3 (stereo unspecified)		> 100 µM		> 100 µM	> 100 µM	> 100 µM	> 100 µM	> 100 µM	> 100 µM	> 100 µM		> 100 µM	> 100 µM	> 100 µM	> 100 µM				
Nc1[nH]c(=O)nc2c1cnn2COCCO		> 100 µM		> 100 µM	> 100 µM	> 100 µM	53.2 µM		> 100 µM	93.7 µM	> 100 µM	> 100 µM	> 100 µM		52.8 µM				
O=P1(Oc2ccc(Cl)cc2Cl)Oc2cc3ccccc3cc2O1		> 100 µM	59.6 µM	> 100 µM	> 100 µM	> 100 µM	> 100 µM	> 60.7 µM	> 60.1 µM	> 100 µM	> 100 µM	> 100 µM	> 100 µM	> 100 µM	> 100 µM				
CN(C)CCC(=O)[C@@]1(O)CC[C@H]2[C@@H]3CC=C4C[C@@H](O)CC[C@]4(C)[C@H]3CC[C@@]21C	19.9 µM	42.6 µM	60 µM	34.3 µM	48.9 µM	28.8 µM	56.1 µM	29.7 µM	7.01 µM	23.1 µM	32.2 µM	33.2 µM	32.2 µM	32.2 µM	31 µM				
Nc1c(S(=O)(=O)O)cc(S(=O)(=O)O)c2ccc(N=Nc3ccccc3)c(O)c12	> 100 µM	> 100 µM		> 100 µM	> 100 µM	> 100 µM	> 100 µM	> 100 µM	> 100 µM	> 100 µM	> 100 µM	> 100 µM	> 100 µM	> 100 µM	> 100 µM				
CCn1c2ccccc2c2ccc(C3C4C(=O)N(c5cccc6ccccc56)C(=O)C4ON3C(C(N)=O)c3ccccc3)cc21 (stereo unspecified)	> 25 µM	> 25 µM		> 25 µM	> 25 µM	> 25 µM	> 25 µM	> 25 µM		> 25 µM	> 25 µM	> 25 µM	> 25 µM	> 25 µM	> 25 µM				
COC(=O)[C@]12CC[C@H]3CN(S(=O)(=O)c4ccc(C)cc4)[C@H]([C@H]31)[C@H](c1ccco1)N2S(=O)(=O)c1ccc(C)cc1	> 100 µM	> 100 µM	> 100 µM	> 100 µM	> 100 µM	58.3 µM	> 100 µM	> 100 µM	86.2 µM	71.5 µM	> 100 µM	> 100 µM	> 100 µM	69.3 µM	> 100 µM				
Cc1nn(CNc2ccc(F)c(Cl)c2)c(=S)n1/N=C/c1ccc(-c2ccc(Cl)cc2Cl)o1	30.7 µM	42.6 µM		34.6 µM	15.5 µM		38.8 µM	33.1 µM	29.7 µM	34.3 µM	34.6 µM	44.3 µM			29 µM				
CC(C)N(CC(=O)O)CC(=O)O	> 100 µM	> 100 µM	> 100 µM	> 100 µM	> 100 µM	> 100 µM	> 100 µM	> 100 µM	> 100 µM	> 100 µM	> 100 µM	> 100 µM	> 100 µM	> 100 µM	> 100 µM				
COc1ccc2c(O)c1-c1c(OC)ccc(c1O)SSc1ccc(OC)c(c1O)-c1c(OC)ccc(c1O)SS2	> 100 µM	44 µM		> 100 µM	97.1 µM	> 100 µM		> 100 µM	7.07 µM	60 µM	> 100 µM	> 100 µM	> 100 µM		69 µM				
CCCCCCCCCCCCCCCCCCN(C)CC(COC)OP(=O)([O-])OCC[N+](C)(C)C (stereo unspecified)	5.13 µM	28.1 µM	3.07 µM	1.52 µM	40.2 µM	26.6 µM	11.7 µM	11.2 µM	3.14 µM	2.29 µM	4.17 µM	31.2 µM	14.6 µM	14.9 µM	2.44 µM				
[O-]c1c2c(nn1-c1ccc(F)cc1)c1ccccc1c[n+]2Cc1ccccc1		56.4 µM	24.8 µM	30.6 µM	81.4 µM	25.6 µM	55.8 µM	22.1 µM	47.1 µM	33.7 µM	40.7 µM	34 µM	52.5 µM	14.2 µM	33.4 µM				
CC(C)=CCC/C(C)=C/Cc1c2c(c3oc(-c4ccc(O)c(O)c4)c(O)c(=O)c3c1O)C=CC(C)(C)O2	8.59 µM			8.5 µM	9.63 µM	4.01 µM	11.6 µM	6.34 µM	9.93 µM	18.6 µM	10.7 µM	10.8 µM	14.5 µM	12.4 µM	10.7 µM				
Cc1ccc(C(=O)NC2C(=O)NC(C(C)C)C(=O)N3CCCC3C(=O)N(C)CC(=O)N(C)C(C(C)C)C(=O)OC2C)c2c1Oc1c(c(C(=O)NC3C(=O)NC(C(C)C)C(=O)N4CCCC4C(=O)N(C)CC(=O)N(C)C(C(C)C)C(=O)OC3C)c3nc(-c4ccccc4)c(=O)oc3c1C)N2 (stereo unspecified)		0.0944 µM and 0.0316 µM	0.00428 µM	13.3 µM		0.195 µM and 0.0239 µM	0.0919 µM		0.0442 µM	0.00911 µM		0.0139 µM	0.0442 µM and 0.312 µM						
O=C(c1ccccc1)c1ccc(N2C(=O)/C(=C/c3ccccc3S)N=C2c2ccccc2)c(N2C(=O)/C(=C/c3ccccc3S)N=C2c2ccccc2)c1	> 100 µM	> 100 µM	> 100 µM	> 100 µM	> 100 µM			51.2 µM	53.1 µM		> 100 µM	> 100 µM	> 100 µM	> 100 µM	> 100 µM				
Cc1csc2nc(-c3cc([N+](=O)[O-])c(Cl)cc3Cl)c(/C=N/N=C(N)N)n12	32.3 µM	38.2 µM	22.1 µM	30 µM	20.4 µM	35.3 µM	33 µM	43.6 µM	56.5 µM	35 µM	39.7 µM	31.1 µM	29.8 µM	27.2 µM	30.5 µM				
CCCCC(CC)C(=O)Oc1ccc(C(=O)c2ccccc2)c(O)c1 (stereo unspecified)	> 100 µM	> 100 µM	> 100 µM	> 100 µM	> 100 µM	> 100 µM	> 100 µM	> 100 µM	> 100 µM	> 100 µM	> 100 µM	> 100 µM	> 100 µM	> 100 µM	> 100 µM				
C=C(C)[C@@H]1CC[C@]2(C(=O)O)CC[C@]3(C)[C@H](CC[C@@H]4[C@@]5(C)C/C(=C/c6ccco6)C(=O)C(C)(C)[C@@H]5CC[C@]43C)[C@@H]12	12.2 µM	> 100 µM						3.58 µM			> 100 µM					3.07 µM	2.73 µM	1.72 µM	3.63 µM
CC(=O)NC1C(OCc2ccccc2)OC(CO)C(O)C1OCC(=O)NC(C(=O)NC(CCC(=O)NCCCCCC(=O)Nc1ccc2c(c1)CN1C(=O)c3ccccc3C1=N2)C(N)=O)C(C)C (stereo unspecified)	> 100 µM	> 100 µM	> 100 µM	50.4 µM	> 100 µM	46.5 µM	> 100 µM	> 100 µM	> 100 µM	45 µM	41.8 µM	39 µM	> 100 µM	40.9 µM	39.2 µM				
CCCCCCC(=O)OC[n+]1ccc(-c2c(COC(=O)NC(C)C)c(COC(=O)NC(C)C)c3n2CCC3)cc1	> 100 µM	> 100 µM	> 100 µM	> 100 µM	> 100 µM	> 100 µM	> 100 µM	> 100 µM	98.9 µM	> 100 µM	> 100 µM	> 100 µM	> 100 µM	> 100 µM	> 100 µM				
